# Assay results from patent publication US20060293307A1, “Oxazolidinone derivatives as antimicrobials” (priority 2002, published 2006).
# Legend:
# [1] = tested on: M. tuberculosis 50; assay: MIC against M. tuberculosis strains, agar dilution; format: cell-based, Mycobacterium tuberculosis; conditions: S. No. 12 Mt-, Middle Brook 7H10 + OADC, 37° C., 14-21 days
# [2] = tested on: M. tuberculosis PC 4793; assay: MIC against M. tuberculosis strains, agar dilution; format: cell-based, Mycobacterium tuberculosis; conditions: S. No. 23 Mt-, Middle Brook 7H10 + OADC, 37° C., 14-21 days
# [3] = tested on: M avium ATCC 700897; assay: MIC against MAC strains, agar dilution; format: cell-based, Mycobacterium avium; conditions: S. No. 05 Ma-6, M avium ATCC 700897; Middle Brook 7H10 + OADC, 37° C., 14-21 days
# [4] = tested on: M. avium intracellulare 4; assay: MIC against MAC strains, agar dilution; format: cell-based; conditions: S. No. 11 Mai-2, M. avium intracellulare 4; Middle Brook 7H10 + OADC, 37° C., 14-21 days
# [5] = tested on: M. avium AIIMS; assay: MIC against MAC strains, agar dilution; format: cell-based, Mycobacterium avium; conditions: S. No. 04 Ma-4, M. avium AIIMS; Middle Brook 7H10 + OADC, 37° C., 14-21 days
# [6] = tested on: S. pyogenes 25147; assay: MIC, agar incorporation method; format: cell-based, Streptococcus pyogenes; conditions: Streptococcus pyogenes; S. No. 52, S. pyogenes 25147; read-out: MIC
# [7] = tested on: S. warnerii ST360; assay: MIC, agar incorporation method; format: cell-based
# [8] = tested on: H. influenzae R; assay: MIC against Haemophilus strains; format: cell-based; conditions: Haemophilus influenzae; s. No. 4, H. influenzae R; read-out: MIC
# [9] = tested on: H. influenzae ATCC 49247; assay: MIC against Haemophilus strains; format: cell-based; conditions: Haemophilus influenzae, ATCC49247; s. No. 2, H. influenzae ATCC 49247; read-out: MIC
# [10] = tested on: S. epidermidis 358; assay: MIC, agar incorporation method; format: cell-based, Staphylococcus epidermidis; conditions: Staphylococcus epidermidis; S. No. 14, S. epidermidis 358; read-out: MIC
# [11] = tested on: S. haemo ATCC 29970; assay: MIC, agar incorporation method; format: cell-based; conditions: S. No. 15, S. haemo ATCC 29970; read-out: MIC
# [12] = tested on: S. aureus (Smith 49951); assay: MIC, agar incorporation method; format: cell-based, Staphylococcus aureus; conditions: Staphylococcus aureus; S. No. 9, S. aureus (Smith 49951); read-out: MIC
# [13] = tested on: S. pneumoniae CS 1687; assay: MIC, agar incorporation method; format: cell-based, Streptococcus pneumoniae; conditions: Streptococcus pneumoniae, CS1687; S. No. 44, S. pneumoniae CS 1687; read-out: MIC
# [14] = tested on: S. epidermidis ATCC 12228; assay: MIC, agar incorporation method; format: cell-based, Staphylococcus epidermidis; conditions: Staphylococcus epidermidis, ATCC12228; S. No. 10, S. epidermidis ATCC 12228; read-out: MIC
# [15] = tested on: H. influenzae 474; assay: MIC against Haemophilus strains; format: cell-based; conditions: Haemophilus influenzae; s. No. 11, H. influenzae 474; read-out: MIC
# [16] = tested on: S. pneumoniae AB 14; assay: MIC, agar incorporation method; format: cell-based, Streptococcus pneumoniae; conditions: Streptococcus pneumoniae, AB14; S. No. 37, S. pneumoniae AB 14; read-out: MIC
# [17] = tested on: S. pneumoniae AB-3; assay: MIC, agar incorporation method; format: cell-based, Streptococcus pneumoniae; conditions: Streptococcus pneumoniae, AB3; S. No. 32, S. pneumoniae AB-3; read-out: MIC
# [18] = tested on: (MRSA) 562; assay: MIC, agar incorporation method; format: cell-based, Staphylococcus aureus; conditions: Staphylococcus aureus; S. No. 8, (MRSA) 562; read-out: MIC
# [19] = tested on: E. faecium 6A (VRE); assay: MIC, agar incorporation method; format: cell-based, Enterococcus faecium; conditions: Enterococcus faecium; S. No. 21, E. faecium 6A (VRE); read-out: MIC
# [20] = tested on: S. epidermidis 823; assay: MIC, agar incorporation method; format: cell-based, Staphylococcus epidermidis; conditions: Staphylococcus epidermidis; S. No. 12, S. epidermidis 823; read-out: MIC
# [21] = tested on: Moraxella M1; assay: MIC, agar incorporation method; format: cell-based; conditions: S. No. 58, Moraxella M1; read-out: MIC
# [22] = tested on: S. pneumoniae ATCC 6303; assay: MIC, agar incorporation method; format: cell-based, Streptococcus pneumoniae; conditions: Streptococcus pneumoniae, ATCC6303; S. No. 50, S. pneumoniae ATCC 6303; read-out: MIC
# [23] = tested on: S. pneumoniae CS1221; assay: MIC, agar incorporation method; format: cell-based, Streptococcus pneumoniae; conditions: Streptococcus pneumoniae; S. No. 34, S. pneumoniae CS1221; read-out: MIC
# [24] = tested on: S. aureus ATCC 25923; assay: MIC, agar incorporation method; format: cell-based, Staphylococcus aureus; conditions: Staphylococcus aureus, ATCC25923; S. No. 1, organism cell empty; read-out: MIC
# [25] = tested on: E. coli 25922; assay: MIC, agar incorporation method; format: cell-based; conditions: Escherichia coli; S. No. 25, E. coli 25922; read-out: MIC
# [26] = tested on: S. aureus (MRSA) ST450; assay: MIC, agar incorporation method; format: cell-based, Staphylococcus aureus; conditions: Staphylococcus aureus; S. No. 6, S. aureus (MRSA) ST450; read-out: MIC
# [27] = tested on: S. pneumoniae AB 22; assay: MIC, agar incorporation method; format: cell-based, Streptococcus pneumoniae; conditions: Streptococcus pneumoniae, AB22; S. No. 42, S. pneumoniae AB 22; read-out: MIC
# [28] = tested on: S. pneumoniae AB 17; assay: MIC, agar incorporation method; format: cell-based, Streptococcus pneumoniae; conditions: Streptococcus pneumoniae, AB17; S. No. 40, S. pneumoniae AB 17; read-out: MIC
# [29] = tested on: S. epidermidis (MRSE)32965; assay: MIC, agar incorporation method; format: cell-based, Staphylococcus epidermidis; conditions: Staphylococcus epidermidis; S. No. 13, S. epidermidis (MRSE)32965; read-out: MIC
# [30] = tested on: Acinetobacter 9956; assay: MIC, agar incorporation method; format: cell-based; conditions: S. No. 30, Acinetobacter 9956; read-out: MIC
# [31] = tested on: S. aureus ATCC29213; assay: MIC, agar incorporation method; format: cell-based, Staphylococcus aureus; conditions: Staphylococcus aureus; S. No. 2, S. aureus ATCC29213; read-out: MIC
# [32] = tested on: S. pneumoniae AB 31; assay: MIC, agar incorporation method; format: cell-based, Streptococcus pneumoniae; conditions: Streptococcus pneumoniae, AB31; S. No. 36, S. pneumoniae AB 31; read-out: MIC
# [33] = tested on: E. faecalis 29212; assay: MIC, agar incorporation method; format: cell-based; conditions: Enterococcus faecalis; S. No. 17, E. faecalis 29212; read-out: MIC
compound,measurement,setting,value
CCc1cc(C(N)=S)ccn1 [ETH],MIC,[1],32 µg/mL
same,MIC,[2],>32 µg/mL
same,MIC,[3],>32 µg/mL
same,MIC,[4],4.0 µg/mL
same,MIC,[5],16 µg/mL
CO[C@H]1/C=C/O[C@@]2(C)Oc3c(C)c(O)c4c(O)c(c(/C=N/N5CCN(C)CC5)c(O)c4c3C2=O)NC(=O)/C(C)=C\C=C\[C@H](C)[C@H](O)[C@@H](C)[C@@H](O)[C@@H](C)[C@H](OC(C)=O)[C@@H]1C [RIF],MIC,[1],>32 µg/mL
same,MIC,[2],2.0 µg/mL
same,MIC,[3],1.0 µg/mL
same,MIC,[4],0.25 µg/mL
same,MIC,[5],4.0 µg/mL
NNC(=O)c1ccncc1 [INH],MIC,[1],>32 µg/mL
same,MIC,[2],>32 µg/mL
same,MIC,[3],4.0 µg/mL
same,MIC,[4],2.0 µg/mL
same,MIC,[5],>32 µg/mL
"CC(=O)NC[C@H]1CN(c2ccc(N3CCN(c4ccc(C=O)s4)CC3)c(F)c2)C(=O)O1 [Compound No. 2, (S)—N-[[3-[3-Fluoro-4-[4-(5-formyl-2-thienyl)-1-piperazinyl]phenyl]-2-oxo-5-oxazolidinyl]methyl]acetamide]",MIC,[6],0.5 µg/mL
same,MIC,[7],< 0.25 µg/mL
same,MIC,[8],> 16 µg/mL
same,MIC,[9],16 µg/mL
same,MIC,[10],0.5 µg/mL
same,MIC,[11],0.5 µg/mL
same,MIC,[12],0.5 µg/mL
same,MIC,[13],0.5 µg/mL
same,MIC,[14],0.5 µg/mL
same,MIC,[15],16 µg/mL
same,MIC,[16],< 0.25 µg/mL
same,MIC,[17],< 0.25 µg/mL
same,MIC,[18],0.5 µg/mL
same,MIC,[19],1 µg/mL
same,MIC,[20],0.5 µg/mL
same,MIC,[21],0.5 µg/mL
same,MIC,[22],0.5 µg/mL
same,MIC,[23],0.5 µg/mL
same,MIC,[24],1 µg/mL
same,MIC,[25],> 16 µg/mL
same,MIC,[26],1 µg/mL
same,MIC,[27],0.5 µg/mL
same,MIC,[28],0.5 µg/mL
same,MIC,[29],< 0.25 µg/mL
same,MIC,[30],> 16 µg/mL
same,MIC,[31],1 µg/mL
same,MIC,[32],0.5 µg/mL
same,MIC,[33],< 0.25 µg/mL
